What was measured:
Abl = target: T1, Abl (Homo sapiens, UniProt P00519); assay: CEREP HTRF kinase selectivity assay; assay type: biochemical
T1 construct: CEREP
Protocol: (§1) The inhibitory activity of selected compounds of the invention was evaluated against a panel of 45 different kinase enzymes by CEREP, France. The assays were performed using standard HTRF assay methods as documented by CEREP against the human orthologues of Ab1 kinase, Akt1/PKBa, AMPKa, BMX kinase (Etk), Brk, CaMK2a, CaMK4, CDC2/CDK1 (cycB), CHK1, CHK2, c-Met kinase, CSK, EphB4 kinase, ERKI, ERK2 (P42mapk), FGFR2 kinase, FGFR4 kinase, FLT-1 kinase (VEGFR1), FLT-3 kinase, Fyn kinase, 1GF1R kinase, IRK (InsR), JNK 2, KDR kinase (VEGFR2), Lck kinase, Lyn kinase, MAPKAPK2, MEK1/MAP2K1, p38a kinase, p38d kinase, p38 g kinase, PDGFRb kinase, PDKI, PKA, PKCa, PKCb1, PKCb2, PKCg, Ret kinase, ROCK2, RSK2, Src kinase, Syk, and TRKA (Table 3). The % Inhibition was determined by the formula; % Inhibition=100×(1−(experimental value−background value)/(high activity control−background value)).

Akt1/PKBalpha = target: T2, Akt1/PKBalpha (Homo sapiens, UniProt P31749); assay: CEREP HTRF kinase selectivity assay; assay type: biochemical
T2 construct: CEREP
Protocol: as §1

BMX (Etk) = target: T3, BMX (Etk) (Homo sapiens, UniProt P51813); assay: CEREP HTRF kinase selectivity assay; assay type: biochemical
T3 construct: CEREP
T3 sequence (P51813 whole entry): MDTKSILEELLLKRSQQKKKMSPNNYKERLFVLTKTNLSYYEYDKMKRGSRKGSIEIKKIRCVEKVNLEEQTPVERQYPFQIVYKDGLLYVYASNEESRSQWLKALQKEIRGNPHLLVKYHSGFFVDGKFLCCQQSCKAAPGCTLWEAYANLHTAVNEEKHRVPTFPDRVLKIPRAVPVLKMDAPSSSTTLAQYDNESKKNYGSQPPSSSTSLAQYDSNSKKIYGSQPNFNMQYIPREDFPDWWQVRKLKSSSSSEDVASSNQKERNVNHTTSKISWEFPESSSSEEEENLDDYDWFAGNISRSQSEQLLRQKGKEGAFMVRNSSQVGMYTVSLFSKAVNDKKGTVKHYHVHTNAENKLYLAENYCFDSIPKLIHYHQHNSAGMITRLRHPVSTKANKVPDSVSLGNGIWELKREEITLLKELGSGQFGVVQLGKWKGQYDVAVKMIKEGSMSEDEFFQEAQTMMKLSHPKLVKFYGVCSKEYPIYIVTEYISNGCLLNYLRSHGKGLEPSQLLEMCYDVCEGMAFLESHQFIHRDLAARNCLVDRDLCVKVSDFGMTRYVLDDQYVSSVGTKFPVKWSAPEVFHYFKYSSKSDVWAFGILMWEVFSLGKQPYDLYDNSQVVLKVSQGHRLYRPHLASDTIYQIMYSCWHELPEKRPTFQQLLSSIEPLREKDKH
Protocol: as §1

Brk = target: T4, Brk (Homo sapiens, UniProt Q13882); assay: CEREP HTRF kinase selectivity assay; assay type: biochemical
T4 construct: CEREP
T4 sequence (Q13882 whole entry): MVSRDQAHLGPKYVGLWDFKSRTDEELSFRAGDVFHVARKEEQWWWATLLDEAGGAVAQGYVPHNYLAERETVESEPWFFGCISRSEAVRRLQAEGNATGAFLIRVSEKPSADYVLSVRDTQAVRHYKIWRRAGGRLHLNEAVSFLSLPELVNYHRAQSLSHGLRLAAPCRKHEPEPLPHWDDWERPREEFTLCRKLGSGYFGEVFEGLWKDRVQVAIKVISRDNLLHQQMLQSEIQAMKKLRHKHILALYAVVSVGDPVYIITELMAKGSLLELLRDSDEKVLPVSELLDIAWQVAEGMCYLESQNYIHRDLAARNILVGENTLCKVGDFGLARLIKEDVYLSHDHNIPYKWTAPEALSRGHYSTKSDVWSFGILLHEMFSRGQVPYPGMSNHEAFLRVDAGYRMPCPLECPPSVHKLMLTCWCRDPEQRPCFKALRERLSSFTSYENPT
Protocol: as §1

CDC2/CDK1 (cycB) = target: T5, CDC2/CDK1 (cycB) (Homo sapiens, UniProt P06493); assay: CEREP HTRF kinase selectivity assay; assay type: biochemical; conditions: CDC2/CDK1, 10 uM
T5 construct: CEREP
Protocol: as §1

CHK1 = target: T6, CHK1 (Homo sapiens, UniProt O14757); assay: CEREP HTRF kinase selectivity assay; assay type: biochemical; conditions: CHK1, 10 uM
T6 construct: CEREP
Protocol: as §1

CHK2 = target: T7, CHK2 (Homo sapiens, UniProt O96017); assay: CEREP HTRF kinase selectivity assay; assay type: biochemical; conditions: CHK2, 10 uM
T7 construct: CEREP
Protocol: as §1

CSK = target: T8, CSK (Homo sapiens, UniProt P41240); assay: CEREP HTRF kinase selectivity assay; assay type: biochemical
T8 construct: CEREP
Protocol: as §1

CaMK4 = target: T9, CaMK4 (Homo sapiens, UniProt Q16566); assay: CEREP HTRF kinase selectivity assay; assay type: biochemical; conditions: CaMK4, 10 uM
T9 construct: CEREP
Protocol: as §1

ERK (P42mapk) = target: T10, ERK (P42mapk) (Homo sapiens, UniProt P28482); assay: CEREP HTRF kinase selectivity assay; assay type: biochemical
T10 construct: CEREP
Protocol: as §1

ERK1 = target: T11, ERK1 (Homo sapiens, UniProt P27361); assay: CEREP HTRF kinase selectivity assay; assay type: biochemical; conditions: ERK1, 10 uM
T11 construct: CEREP
Protocol: as §1

EphB4 = target: T12, EphB4 (Homo sapiens, UniProt P54760); assay: CEREP HTRF kinase selectivity assay; assay type: biochemical; conditions: EphB4, 10 uM
T12 construct: CEREP
Protocol: as §1

FGFR4 = target: T13, FGFR4 (Homo sapiens, UniProt P22455); assay: CEREP HTRF kinase selectivity assay; assay type: biochemical; conditions: FGFR4, 10 uM
T13 construct: CEREP
T13 sequence (P22455 22-802): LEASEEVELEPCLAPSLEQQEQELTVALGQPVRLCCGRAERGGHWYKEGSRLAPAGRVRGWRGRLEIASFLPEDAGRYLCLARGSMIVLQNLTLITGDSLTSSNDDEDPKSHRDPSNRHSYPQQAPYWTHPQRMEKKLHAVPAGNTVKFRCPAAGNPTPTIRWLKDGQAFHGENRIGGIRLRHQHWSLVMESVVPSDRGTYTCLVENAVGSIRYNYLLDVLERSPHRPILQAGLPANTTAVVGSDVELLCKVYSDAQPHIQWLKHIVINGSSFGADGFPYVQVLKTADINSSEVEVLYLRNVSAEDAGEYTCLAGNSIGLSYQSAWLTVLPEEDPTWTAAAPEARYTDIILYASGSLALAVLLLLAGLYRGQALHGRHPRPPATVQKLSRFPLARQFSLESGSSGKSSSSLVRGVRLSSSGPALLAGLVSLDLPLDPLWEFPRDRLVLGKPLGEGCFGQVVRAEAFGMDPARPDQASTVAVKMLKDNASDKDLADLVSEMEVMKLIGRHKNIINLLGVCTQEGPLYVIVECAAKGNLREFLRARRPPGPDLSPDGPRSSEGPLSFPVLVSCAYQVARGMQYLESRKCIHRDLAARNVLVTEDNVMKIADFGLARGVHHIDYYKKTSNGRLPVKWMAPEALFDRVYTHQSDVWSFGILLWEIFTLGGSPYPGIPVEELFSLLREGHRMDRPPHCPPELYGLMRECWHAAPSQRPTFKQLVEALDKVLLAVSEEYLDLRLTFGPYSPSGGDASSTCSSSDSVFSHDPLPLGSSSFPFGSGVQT
Protocol: as §1

Fyn = Fyn (Homo sapiens, UniProt P06241); assay: CEREP HTRF kinase selectivity assay; assay type: biochemical
Protocol: as §1

IGF1R = IGF1R (Homo sapiens, UniProt P08069); assay: CEREP HTRF kinase selectivity assay; assay type: biochemical
Protocol: as §1

IRK (InsR) = IRK (InsR) (Homo sapiens, UniProt P06213); assay: CEREP HTRF kinase selectivity assay; assay type: biochemical
Protocol: as §1

JNK 2 = JNK 2 (Homo sapiens, UniProt P45984); assay: CEREP HTRF kinase selectivity assay; assay type: biochemical; conditions: JNK 2, 10 uM
Protocol: as §1

Lck = Lck (Homo sapiens, UniProt P06239); assay: CEREP HTRF kinase selectivity assay; assay type: biochemical
Protocol: as §1

Lyn = Lyn (Homo sapiens, UniProt P07948); assay: CEREP HTRF kinase selectivity assay; assay type: biochemical
Protocol: as §1

MAPKAPK2 = MAPKAPK2 (Homo sapiens, UniProt P49137); assay: CEREP HTRF kinase selectivity assay; assay type: biochemical; conditions: MAPKAPK2, 10 uM
MAPKAPK2, sequence (P49137 whole entry): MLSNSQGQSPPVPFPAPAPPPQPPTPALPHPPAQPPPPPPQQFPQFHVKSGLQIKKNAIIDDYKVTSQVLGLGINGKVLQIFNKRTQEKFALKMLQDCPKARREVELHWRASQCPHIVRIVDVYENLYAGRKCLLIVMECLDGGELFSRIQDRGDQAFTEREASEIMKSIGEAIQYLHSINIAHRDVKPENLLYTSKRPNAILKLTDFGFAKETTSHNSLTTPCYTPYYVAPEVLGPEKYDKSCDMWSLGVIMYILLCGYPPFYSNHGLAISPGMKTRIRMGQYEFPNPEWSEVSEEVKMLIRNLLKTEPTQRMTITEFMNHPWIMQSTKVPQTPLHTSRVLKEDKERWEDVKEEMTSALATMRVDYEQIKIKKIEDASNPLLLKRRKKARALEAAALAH
Protocol: as §1

MEK1/MAP2K1 = MEK1/MAP2K1 (Homo sapiens, UniProt Q02750); assay: CEREP HTRF kinase selectivity assay; assay type: biochemical; conditions: MEK1/MAP2K1, 10 uM
Protocol: as §1

PDGFRbeta = PDGFRbeta (Homo sapiens, UniProt P09619); assay: CEREP HTRF kinase selectivity assay; assay type: biochemical
Protocol: as §1

PDK1 = PDK1 (Homo sapiens, UniProt O15530); assay: CEREP HTRF kinase selectivity assay; assay type: biochemical; conditions: PDK1, 10 uM
Protocol: as §1

PKA = PKA (Homo sapiens, UniProt P17612); assay: CEREP HTRF kinase selectivity assay; assay type: biochemical
Protocol: as §1

PKCalpha = PKCalpha (Homo sapiens, UniProt P17252); assay: CEREP HTRF kinase selectivity assay; assay type: biochemical
Protocol: as §1

PKCbeta 1 = PKCbeta 1 (Homo sapiens, UniProt P05771); assay: CEREP HTRF kinase selectivity assay; assay type: biochemical; conditions: PKCbeta 1, 10 uM
Protocol: as §1

PKCbeta 2 = PKCbeta 2 (Homo sapiens, UniProt P05771); assay: CEREP HTRF kinase selectivity assay; assay type: biochemical; conditions: PKCbeta 2, 10 uM
Protocol: as §1

PKCgamma = PKCgamma (Homo sapiens, UniProt P05129); assay: CEREP HTRF kinase selectivity assay; assay type: biochemical
Protocol: as §1

ROCK2 = ROCK2 (Homo sapiens, UniProt O75116); assay: CEREP HTRF kinase selectivity assay; assay type: biochemical; conditions: ROCK2, 10 uM
ROCK2, sequence (O75116 whole entry): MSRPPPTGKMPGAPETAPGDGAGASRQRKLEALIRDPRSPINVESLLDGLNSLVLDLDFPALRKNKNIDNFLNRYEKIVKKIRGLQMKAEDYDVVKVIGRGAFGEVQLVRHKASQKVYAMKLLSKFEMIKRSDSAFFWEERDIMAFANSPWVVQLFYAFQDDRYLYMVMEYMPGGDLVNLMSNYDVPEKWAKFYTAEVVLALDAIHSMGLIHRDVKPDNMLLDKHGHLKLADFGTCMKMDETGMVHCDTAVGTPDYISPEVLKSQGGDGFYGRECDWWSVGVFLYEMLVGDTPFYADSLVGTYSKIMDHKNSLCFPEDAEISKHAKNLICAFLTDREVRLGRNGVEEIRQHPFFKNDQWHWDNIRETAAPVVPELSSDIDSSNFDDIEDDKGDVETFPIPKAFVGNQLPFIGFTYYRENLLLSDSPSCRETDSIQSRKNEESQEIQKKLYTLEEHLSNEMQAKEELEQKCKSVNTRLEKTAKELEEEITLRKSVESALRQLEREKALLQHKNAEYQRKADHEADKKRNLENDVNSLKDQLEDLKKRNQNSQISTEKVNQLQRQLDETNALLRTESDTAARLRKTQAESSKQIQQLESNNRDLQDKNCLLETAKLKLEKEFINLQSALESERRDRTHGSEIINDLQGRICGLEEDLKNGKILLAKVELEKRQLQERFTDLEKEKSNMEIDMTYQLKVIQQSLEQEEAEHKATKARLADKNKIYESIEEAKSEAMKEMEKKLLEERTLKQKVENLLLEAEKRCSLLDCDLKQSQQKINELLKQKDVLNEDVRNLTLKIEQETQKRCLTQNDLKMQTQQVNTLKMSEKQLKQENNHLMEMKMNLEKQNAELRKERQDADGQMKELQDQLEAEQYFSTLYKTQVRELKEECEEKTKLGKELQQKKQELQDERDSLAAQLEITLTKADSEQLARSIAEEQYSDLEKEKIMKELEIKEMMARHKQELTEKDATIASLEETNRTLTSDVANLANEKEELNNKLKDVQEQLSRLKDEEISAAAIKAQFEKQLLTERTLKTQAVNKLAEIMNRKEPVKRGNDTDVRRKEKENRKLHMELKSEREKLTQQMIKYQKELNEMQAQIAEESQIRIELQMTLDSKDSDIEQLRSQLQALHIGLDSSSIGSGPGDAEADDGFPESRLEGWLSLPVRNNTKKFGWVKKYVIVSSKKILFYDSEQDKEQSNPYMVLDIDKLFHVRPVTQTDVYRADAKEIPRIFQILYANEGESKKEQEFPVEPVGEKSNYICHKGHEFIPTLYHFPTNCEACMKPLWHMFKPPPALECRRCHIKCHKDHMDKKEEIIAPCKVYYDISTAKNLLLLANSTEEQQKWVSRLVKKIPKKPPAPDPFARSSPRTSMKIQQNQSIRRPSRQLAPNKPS
Protocol: as §1

RSK2 = RSK2 (Homo sapiens, UniProt P51812); assay: CEREP HTRF kinase selectivity assay; assay type: biochemical; conditions: RSK2, 10 uM
Protocol: as §1

Ret = Ret (Homo sapiens, UniProt P07949); assay: CEREP HTRF kinase selectivity assay; assay type: biochemical
Protocol: as §1

Src = Src (Homo sapiens, UniProt P12931); assay: CEREP HTRF kinase selectivity assay; assay type: biochemical
Protocol: as §1

TRKA = target: T14, TRKA (Homo sapiens, UniProt P04629); assay: CEREP HTRF kinase selectivity assay; assay type: biochemical
T14 construct: CEREP, France (contract panel)
Protocol: as §1

c-Met = target: T15, c-Met (Homo sapiens, UniProt P08581); assay: CEREP HTRF kinase selectivity assay; assay type: biochemical
T15 construct: CEREP
Protocol: as §1

p38alpha = p38alpha (Homo sapiens, UniProt Q16539); assay: CEREP HTRF kinase selectivity assay; assay type: biochemical
Protocol: as §1

p38delta = p38delta (Homo sapiens, UniProt O15264); assay: CEREP HTRF kinase selectivity assay; assay type: biochemical
Protocol: as §1

p38gamma = p38gamma (Homo sapiens, UniProt P53778); assay: CEREP HTRF kinase selectivity assay; assay type: biochemical
Protocol: as §1

FLT-3 = FLT-3 (Homo sapiens, UniProt P36888); assay: CEREP HTRF kinase selectivity assay; assay type: biochemical; conditions: FLT-3, 10 uM
Protocol: (§2) The inhibitory activity of selected compounds of the invention was evaluated against a panel of 45 different kinase enzymes by CEREP, France. […] The % Inhibition was determined by the formula; % Inhibition=100×(1−(experimental value−background value)/(high activity control−background value)).

KDR (VEGFR2) = KDR (VEGFR2) (Homo sapiens, UniProt P35968); assay: CEREP HTRF kinase selectivity assay; assay type: biochemical
Protocol: as §2

HUV-EC-C cells = assay: In Vitro Angiogenesis Assay (tube formation); conditions: HUV-EC-C cells on ECMatrix, 4 hr; FIGS. 1 and 2

T1 sequence (P00519 whole entry): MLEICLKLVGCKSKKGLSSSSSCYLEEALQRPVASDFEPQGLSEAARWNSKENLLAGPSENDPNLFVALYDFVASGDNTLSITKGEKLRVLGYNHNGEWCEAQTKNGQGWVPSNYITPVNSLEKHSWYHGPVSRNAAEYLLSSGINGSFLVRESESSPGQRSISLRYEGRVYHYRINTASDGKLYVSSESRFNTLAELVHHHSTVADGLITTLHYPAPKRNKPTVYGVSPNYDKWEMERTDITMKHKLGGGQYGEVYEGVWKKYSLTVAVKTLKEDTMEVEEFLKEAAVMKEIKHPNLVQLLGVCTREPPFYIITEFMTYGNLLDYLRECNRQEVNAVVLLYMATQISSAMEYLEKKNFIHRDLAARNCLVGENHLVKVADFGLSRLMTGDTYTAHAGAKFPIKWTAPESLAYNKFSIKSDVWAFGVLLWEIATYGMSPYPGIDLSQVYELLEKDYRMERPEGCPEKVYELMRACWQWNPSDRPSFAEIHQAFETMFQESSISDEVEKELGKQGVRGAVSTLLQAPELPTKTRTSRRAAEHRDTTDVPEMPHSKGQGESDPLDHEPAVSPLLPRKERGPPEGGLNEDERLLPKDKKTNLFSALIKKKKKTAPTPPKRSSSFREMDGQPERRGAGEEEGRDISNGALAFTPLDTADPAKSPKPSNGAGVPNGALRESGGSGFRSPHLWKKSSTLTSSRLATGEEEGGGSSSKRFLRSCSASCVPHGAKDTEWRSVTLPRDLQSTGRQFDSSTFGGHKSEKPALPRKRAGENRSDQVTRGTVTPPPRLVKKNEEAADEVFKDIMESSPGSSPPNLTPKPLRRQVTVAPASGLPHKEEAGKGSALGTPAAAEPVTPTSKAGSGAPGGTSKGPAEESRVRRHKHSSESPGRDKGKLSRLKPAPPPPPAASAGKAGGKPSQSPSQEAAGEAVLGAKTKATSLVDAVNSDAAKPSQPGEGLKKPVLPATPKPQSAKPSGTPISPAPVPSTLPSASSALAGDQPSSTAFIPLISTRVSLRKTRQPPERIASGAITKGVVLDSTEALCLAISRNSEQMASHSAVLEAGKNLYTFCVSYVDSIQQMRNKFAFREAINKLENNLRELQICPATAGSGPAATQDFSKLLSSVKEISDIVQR

## O=C1Nc2ccccc2[C@@]12C[C@@H]2c1ccc2c(/C=C/c3ccncc3)n[nH]c2c1 (racemic) [Example A22, (1R*,2S*)-(E)-2-(3-(2-(pyridin-4-yl)vinyl)-1H-indazol-6-yl)spiro-[cyclo-propane-1,3′-indolin]-2′-one]
Abl
  inhibition at 10 µM: 97%
Akt1/PKBalpha
  inhibition at 10 µM: -1%
BMX (Etk)
  inhibition at 10 µM: 71%
Brk
  inhibition at 10 µM: 41%
CDC2/CDK1 (cycB)
  inhibition at 10 µM: 93%
CHK1
  inhibition at 10 µM: 37%
CHK2
  inhibition at 10 µM: 4%
CSK
  inhibition at 10 µM: 99%
CaMK4
  inhibition at 10 µM: -8%
ERK (P42mapk)
  inhibition at 10 µM: 11%
ERK1
  inhibition at 10 µM: 8%
EphB4
  inhibition at 10 µM: 99%
FGFR4
  inhibition at 10 µM: 56%
Fyn
  inhibition at 10 µM: 87%
IGF1R
  inhibition at 10 µM: 22%
IRK (InsR)
  inhibition at 10 µM: 21%
JNK 2
  inhibition at 10 µM: 32%
Lck
  inhibition at 10 µM: 97%
Lyn
  inhibition at 10 µM: 99%
MAPKAPK2
  inhibition at 10 µM: 4%
MEK1/MAP2K1
  inhibition at 10 µM: 12%
PDGFRbeta
  inhibition at 10 µM: 88%
PDK1
  inhibition at 10 µM: 69%
PKA
  inhibition at 10 µM: -6%
PKCalpha
  inhibition at 10 µM: 7%
PKCbeta 1
  inhibition at 10 µM: 0%
PKCbeta 2
  inhibition at 10 µM: 11%
PKCgamma
  inhibition at 10 µM: 8%
ROCK2
  inhibition at 10 µM: 88%
RSK2
  inhibition at 10 µM: 48%
Ret
  inhibition at 10 µM: 99%
Src
  inhibition at 10 µM: 26%
TRKA
  inhibition at 10 µM: 100%
c-Met
  inhibition at 10 µM: 97%
p38alpha
  inhibition at 10 µM: 32%
p38delta
  inhibition at 10 µM: -22%
p38gamma
  inhibition at 10 µM: -15%
FLT-3
  inhibition at 10 µM: 100%
KDR (VEGFR2)
  inhibition at 10 µM: 98%
HUV-EC-C cells
  anti-angiogenic effect (tube formation, % of control tube count): anti-agiogenic effects at submicromolar concentrations

From patent publication US8481525B2, “Kinase inhibitors and method of treating cancer with same” (University of Health Network, priority 2009, dated 2013)
